Results: patent US8741905B2, “Compounds and methods for treating autoimmune diseases” (The Broad Institute, Inc., priority 2010, dated 2014)

Legend:
INS-1E cells [1] = assay: Cellular ATP levels (CellTiter-Glo) in cytokine-treated INS-1E cells; suppression of cytokine-induced beta-cell apoptosis; assay type: cell-based, rat; conditions: Rattus norvegicus
Procedure: The compounds were analyzed for activity utilizing methods described in Chou et al. (ACS Chem. Biol. 2010 Aug. 20; 5(8):729-34).
INS-1E cells were seeded at 10,000 cells per well using a Multidrop Combi (Thermo Labsystems) in white optical 384-well plates (Corning Life Sciences). After overnight incubation, medium was removed and 50 μL of RPMI containing 1% FBS and a combination of cytokines (10 ng mL-^1 IL-1β, 50 ng mL^−1 IFN-γ, 25 ngmL^−1 TNF-α) was added to every well. Using libraries of compounds dissolved in DMSO and a CyBi-Well pin-transfer robot (CyBio Corp.), 0.1 μL of each compound was added. After 48 h, medium was removed and 20 μL of CellTiter-Glo reagent was added. Luminescence was measured after 10 min of incubation using an EnVision plate reader (PerkinElmer).
Instrument output files were processed using Pipeline Pilot (Accelrys) and input to MATLAB (The MathWorks) for data normalization. Compound performance scores relative to a distribution of mock-treated (DMSO) wells were calculated using a revised version of the scoring system underlying ChemBank. (Seiler et al., Nucleic Acids Res. 36, D351-359, 2008). The role of replicate treatments was further developed as follows: first, mock-treatment distributions were modeled using all mock-treated wells measured on a single day, regardless of their nominal replicate; second, per-compound scores weighted each in-plate background-subtracted measurement by the uncertainty in that measurement, using the method of maximum likelihood. The uncertainty in a single background-subtracted measurement was estimated using the number of mock-treated wells on the plate and, as a measure of the assay noise, the standard deviation of the per-day mock-treatment distribution. The signal, a weighted average of differences, was scaled by the noise, the standard deviation of the mock treatment distribution.
INS-1E cells were seeded at 10,000 cells/well using a Multidrop Combi (Thermo Labsystems) in white optical 384-well plates (Corning Life Sciences). After overnight incubation, medium was removed and 50 μL RPMI containing the treated compound, 1% FBS and a combination of cytokines (10 ng/mL IL-1β, 50 ng/mL IFN-γ, 25 ng/mL TNF-α) was added to every well. After incubation for 48 hr, medium was removed and 20 μL CellTiter-Glo reagent was added. Luminescence was measured after 10-min incubation using an EnVision plate reader (PerkinElmer).

INS-1E cells [2] = assay: Caspase-3 activity assay (Caspase-Glo 3/7) in cytokine-treated INS-1E cells; assay type: cell-based, rat; conditions: cytokines
Procedure: INS-1E cells were seeded at 5,000 cells per well in white optical 384-well plates and treated as described for highthroughput screening. After treatment with cytokines and compounds for 48 h, medium was removed and 20 μL Caspase-Glo 3/7 reagent was added. Luminescence was measured after 2 h of incubation using an EnVision plate reader.

EC50 (INS-1E cells [2]; Rattus norvegicus, 48 h, Caspase-Glo 3/7): > 10000 nM
SMILES: C[C@@H]1CN([C@@H](C)CO)C(=O)c2cccc(NC(=O)Nc3cccc4ccccc34)c2O[C@H]1CN(C)S(=O)(=O)c1ccc2c(c1)OCCO2 [Compound 21A, N-(((2R,3R)-5-((S)-1-Hydroxypropan-2-yl)-3-methyl-10-(3-(naphthalen-1-yl)ureido)-6-oxo-3,4,5,6-tetrahydro-2H-benzo[b][1,5]oxazocin-2-yl)methyl)-N-methyl-2,3-dihydrobenzo-[b][1,4]dioxine-6-sulfonamide]
EC50 (INS-1E cells [1]; INS-1E, assay not named, read-out: EC50): 770 nM
IC50 (INS-1E cells [1]; INS-1E, read-out: IC50, inhibition of cytokine-induced beta cell apoptosis): 770 nM
EC50 (INS-1E cells [1]; INS-1E cells, cytokines IL-1β, IFN-γ, TNF-α, 48 h, CellTiter-Glo, read-out: CTG EC50 in HTS): > 100 nM
caspase-3/7 activity in INS-1E cells (INS-1E cells [2]): decreased caspase-3/7 activity
